Measured values reported in article PMC10629583, “Specific inhibition of an anticancer target, polo-like kinase 1, by allosterically dismantling its mechanism of substrate recognition” (Proceedings of the National Academy of Sciences of the …, 2023).
Entries after “also recorded” stand apart in the source; their conditions may differ. Each block holds one compound with its values, some of them ahead of it. [ ]: non-standard residue; d: D form. The star is where a group is joined. FITC = O=C1OC2(c3ccc(O)cc3Oc3cc(O)ccc32)c2ccc(NC(=S)*)cc21; pT = C[C@@H](OP(=O)(O)O)[C@H](N)C(=O)O; Ahx = NCCCCCC(=O)O

How the values were obtained:
full-length Plk1 = target: T1, full-length Plk1 (Homo sapiens, UniProt P53350); test: ELISA-based PBD1-binding inhibition assay; details: total lysates from HEK293A cells expressing full-length Plk1; biotinylated PBIP1 p-T78 peptide; read-out: Anti-Plk1 (full length) ELISA (IC50) Mean ± SEM
T1 construct: expressed in transfected cells; host or cells: HEK293A cells infected with adenovirus; total lysate

L363 cells = test: MTS cell viability assay, L363 cells; assay type: cell-based; details: 48 h treatment
Plk1 PBD (PBD1) = target: T2, Plk1 PBD (PBD1) (Homo sapiens, UniProt P53350); test: FP-based inhibition assay, PBD1; assay type: binding; details: FP, bacterially expressed purified PBD, FITC-ligand 15 nM, PBD at EC85; read-out: PBD1 IC50 ± SD
T2 construct: constructs expressing PBD1 (residues 345–603) WT (pKM7650); His; TEV site (N); made in house; host or cells: bacteria (E. coli)
Description: (§1) FP assays were carried out essentially as described previously ([35], [36]). […] All the samples were analyzed approximately 30 min after reaction in a 384-well format using the SpectraMax Paradigm multimode microplate detection platform (Molecular Devices). Data were analyzed after carrying out at least three independent experiments using GraphPad Prism software version 8.

Plk2 PBD (PBD2) = target: T3, Plk2 PBD (PBD2) (Homo sapiens, UniProt Q9NYY3); test: FP-based inhibition assay, PBD2; assay type: binding; details: bacterially expressed purified PBD, FITC-ligand 15 nM, PBD at EC85
T3 construct: Purification of PBD2-His (355–685) (pKM3358) and its S652F mutant (pKM7980); His (C); made in house; host or cells: bacteria (E. coli)
T3 sequence (Q9NYY3 355-685): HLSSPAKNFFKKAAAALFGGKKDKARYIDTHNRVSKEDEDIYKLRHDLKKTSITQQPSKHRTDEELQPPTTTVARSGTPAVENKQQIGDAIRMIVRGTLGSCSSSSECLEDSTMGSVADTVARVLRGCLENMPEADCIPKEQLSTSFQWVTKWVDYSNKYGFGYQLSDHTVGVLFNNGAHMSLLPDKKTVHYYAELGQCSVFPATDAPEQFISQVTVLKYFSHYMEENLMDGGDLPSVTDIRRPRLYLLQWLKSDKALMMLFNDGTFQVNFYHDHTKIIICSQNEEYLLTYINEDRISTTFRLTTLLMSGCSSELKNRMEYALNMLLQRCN
Description: as §1

Plk3 PBD (PBD3) = target: T4, Plk3 PBD (PBD3) (Homo sapiens, UniProt Q9H4B4); test: FP-based inhibition assay, PBD3; assay type: binding; details: bacterially expressed purified PBD, FITC-ligand 15 nM, PBD at EC85
T4 construct: MBP-PBD3-His (335–646) (pKM3359) and its A612F (pKM7981); His (C); made in house; host or cells: bacteria (E. coli)
T4 sequence (Q9H4B4 335-646): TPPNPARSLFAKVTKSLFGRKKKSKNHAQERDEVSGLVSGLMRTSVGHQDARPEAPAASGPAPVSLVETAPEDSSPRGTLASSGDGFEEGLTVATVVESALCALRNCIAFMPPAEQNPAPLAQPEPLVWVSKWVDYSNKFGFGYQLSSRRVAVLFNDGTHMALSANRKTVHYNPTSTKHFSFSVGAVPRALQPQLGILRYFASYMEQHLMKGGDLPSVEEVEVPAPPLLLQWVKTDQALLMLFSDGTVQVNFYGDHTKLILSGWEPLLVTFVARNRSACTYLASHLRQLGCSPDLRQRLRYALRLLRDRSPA
Description: (§2) FP assays were carried out essentially as described previously ([35], [36]). FITC-conjugated ligands (15 nM) were mixed with PBDs at their EC85 concentrations. All the samples were analyzed approximately 30 min after reaction in a 384-well format using the SpectraMax Paradigm multimode microplate detection platform (Molecular Devices). Data were analyzed after carrying out at least three independent experiments using GraphPad Prism software version 8.

BZP Rat brain site = test: PDSP off-target binding screen; details: read-out: Secondary screen Ki
From the text: (§3) PDSP no. Compound Interactions (Ki, µM)
(§4) 60477 Allopole-A None observed.
(§5) trigger a secondary screen at that receptor.

[1] = Conversion of prodrug 6 to active species 5 by GSH (HPLC); assay type: physicochemical; details: room temperature, after 5 min
Description: To a solution of 6 (1.0 mg, 2.4 µmol) in 0.800 mL of MeOH-d4 was added a solution of glutathione (1.1 mg, 3.6 µmol) and sodium carbonate (0.76 mg, 7.2 µmol) in 0.200 mL of D2O. The reaction was stirred at room temperature and sampled at 5, 10, 20, and 60 min. Aliquots were flash-frozen on dry ice and always stored at −80 °C. HPLC and mass spectrometry were used to analyze the reaction mixtures.
HPLC analysis of both pure 6 (rt = 13.95 min) and 5 (rt = 11.16 min) using the method of acetonitrile 05 to 95% and 10 mM triethylammonium acetate 95 to 5% in 20 min gave standards to compare against the reaction mixture. The HPLC analysis of the reaction mixture, compared to standards, was performed using a Hewlett−Packard 1100 HPLC equipped with an Agilent Eclipse 5 µm XDB-C18 analytical column (50 mm × 4.6 mm; Agilent Technologies Inc.).

[2] = Solubility in PBS (imaging of insoluble particles, dynamic light scattering); assay type: physicochemical; details: PBS buffer (pH 7.4)
Description: All samples were analyzed after adjusting the concentration to 100 μM solution in the PBS buffer (pH 7.4) containing 1% DMSO. The measurements were carried out at 25 °C using the DynaPro NanoStar system (Wyatt Technology). The intensity of the scattered light was measured as a function of time, and the resulting data were used to calculate the size and distribution of the particles in the sample. Collected data were analyzed using the DYNAMICS software to calculate the mean size and polydispersity index of the particles in the sample. At least three repeat measurements were performed to ensure that the results were accurate and reproducible.
Fig. S1. Solubility and activity of Allopole and its related compounds. (A) Images showing insoluble
particles of 200 µM of the indicated compounds dissolved in the PBS buffer. The aggregates of […]

[3] = test system: 45 receptors and channels; test: PDSP off-target screen (whole panel); assay type: binding, human
From the text: as §3, §4, §5

Flag-Plk1 K82M = test: Pulldown with biotinylated compound 22, Plk1; assay type: binding; details: streptavidin agarose, anti-Flag immunoblot
Description: (§6) A mixture of total cell lysates expressing Flag-Plk1 K82M (pKL577), Flag-Plk2 K108M (pKL1416), or Flag-Plk3 K52R (pKM203) (a gift from Wei Dai, New York University School of Medicine, NY) was prepared in TBSN buffer and incubated with a biotinylated Allopole-A-derivative, 22, or biotin alone. The resulting samples were then subjected to pulldown analyses with streptavidin agarose bead (Thermo Fisher Scientific), after which they were separated by SDS-PAGE and immunoblotted with anti-Flag antibody.

Flag-Plk2 K108M = test: Pulldown with biotinylated compound 22, Plk2; assay type: binding; details: streptavidin agarose, anti-Flag immunoblot
Description: as §6

Flag-Plk3 K52R = target: T5, Flag-Plk3 K52R (Homo sapiens, UniProt Q9H4B4, K91R); test: Pulldown with biotinylated compound 22, Plk3; assay type: binding; details: streptavidin agarose, anti-Flag immunoblot
T5 construct: expressed in transfected cells; host or cells: HEK293 cells; mixed total lysates
Description: as §6

PBD1 F559D mutant = target: T6, PBD1 F559D mutant (Homo sapiens, UniProt P53350, F559D); test: FP-based binding/inhibition assay, PBD1 F559D; details: FP binding, PBD1 F559D vs WT
T6 construct: constructs expressing PBD1 (residues 345–603) WT (pKM7650), F559D (pKM7878); His; TEV site (N); made in house; host or cells: bacteria (E. coli)
Description: as §2
(§7) Fig. S4. Generation of F559 mutants for in vitro and cell-based assays in Fig. 4. (A) SDS-PAGE showing the proteins used for the FP assays in Fig. 4 A and B. CBB, a Coomassie Brilliant Blue– stained gel. (B) Summary of Kd and EC85 values for PBD1 WT and mutants. The Kd values for PBD1 WT and mutants were determined after extrapolating them from the binding curves as the concentration at which 50% of the FITC-Ahx-DPPLHSpTAI-NH2 are PBD1-bound. The EC85 values indicate the effective concentration of 85% of the maximal concentration calculated for each protein. The FP values were obtained 30 minutes after incubation. For the F559K and F559R mutants, we were not able to determine the EC85 values and therefore used 2 µM of these proteins for the assays in Fig. 4B. N.D., not determined. […]

PBD1 F559E mutant = target: T7, PBD1 F559E mutant (Homo sapiens, UniProt P53350, F559E); test: FP-based binding/inhibition assay, PBD1 F559E; details: FP binding, PBD1 F559E vs WT
T7 construct: constructs expressing PBD1 (residues 345–603) WT (pKM7650), F559D (pKM7878), F559E (pKM7879); His; TEV site (N); made in house; host or cells: bacteria (E. coli)
Description: as §2, §7

PBD1 F559K mutant = target: T8, PBD1 F559K mutant (Homo sapiens, UniProt P53350, F559K); test: FP-based binding/inhibition assay, PBD1 F559K; details: FP binding, PBD1 F559K vs WT
T8 construct: constructs expressing PBD1 (residues 345–603) WT (pKM7650); His; TEV site (N); made in house; host or cells: bacteria (E. coli)
Description: as §2, §7

PBD1 F559R mutant = target: T9, PBD1 F559R mutant (Homo sapiens, UniProt P53350, F559R); test: FP-based binding/inhibition assay, PBD1 F559R; details: FP binding, PBD1 F559R vs WT
T9 construct: constructs expressing PBD1 (residues 345–603) WT (pKM7650); His; TEV site (N); made in house; host or cells: bacteria (E. coli)
Description: as §2, §7

cultured cells = test system: cultured cells; design: method as in PMID 31685831; details: cited from earlier work

T1 sequence (P53350 whole entry): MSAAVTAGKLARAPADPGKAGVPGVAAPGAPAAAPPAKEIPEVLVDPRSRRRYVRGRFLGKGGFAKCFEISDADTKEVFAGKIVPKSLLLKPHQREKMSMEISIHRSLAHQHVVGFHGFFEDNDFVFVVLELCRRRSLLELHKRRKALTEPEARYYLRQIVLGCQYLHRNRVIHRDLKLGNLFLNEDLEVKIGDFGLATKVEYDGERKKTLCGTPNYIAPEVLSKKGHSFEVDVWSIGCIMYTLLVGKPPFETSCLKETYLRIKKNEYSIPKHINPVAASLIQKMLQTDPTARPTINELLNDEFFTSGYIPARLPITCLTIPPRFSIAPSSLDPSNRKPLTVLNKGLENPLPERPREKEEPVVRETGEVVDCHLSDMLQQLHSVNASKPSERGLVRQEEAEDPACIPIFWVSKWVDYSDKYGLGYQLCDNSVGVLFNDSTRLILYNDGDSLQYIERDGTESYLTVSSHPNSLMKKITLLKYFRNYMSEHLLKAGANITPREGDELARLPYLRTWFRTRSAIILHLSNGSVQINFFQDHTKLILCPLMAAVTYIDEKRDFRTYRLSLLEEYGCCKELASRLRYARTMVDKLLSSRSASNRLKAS
T7 sequence (P53350 345-603 F559E): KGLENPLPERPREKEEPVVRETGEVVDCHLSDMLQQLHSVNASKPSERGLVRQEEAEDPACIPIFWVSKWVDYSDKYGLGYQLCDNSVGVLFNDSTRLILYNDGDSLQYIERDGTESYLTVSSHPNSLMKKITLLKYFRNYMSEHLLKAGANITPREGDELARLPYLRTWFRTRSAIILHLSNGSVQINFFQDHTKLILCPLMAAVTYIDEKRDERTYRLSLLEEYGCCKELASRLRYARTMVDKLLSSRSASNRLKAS
T8 sequence (P53350 345-603 F559K): as the sequence (P53350 345-603 F559E) above, with E215K counted along it
T6 sequence (P53350 345-603 F559D): as the sequence (P53350 345-603 F559E) above, with E215D counted along it
T2 sequence (P53350 345-603): as the sequence (P53350 345-603 F559E) above, with E215F counted along it
T9 sequence (P53350 345-603 F559R): as the sequence (P53350 345-603 F559E) above, with E215R counted along it
T5 sequence (Q9H4B4 40-646 K91R limits assumed): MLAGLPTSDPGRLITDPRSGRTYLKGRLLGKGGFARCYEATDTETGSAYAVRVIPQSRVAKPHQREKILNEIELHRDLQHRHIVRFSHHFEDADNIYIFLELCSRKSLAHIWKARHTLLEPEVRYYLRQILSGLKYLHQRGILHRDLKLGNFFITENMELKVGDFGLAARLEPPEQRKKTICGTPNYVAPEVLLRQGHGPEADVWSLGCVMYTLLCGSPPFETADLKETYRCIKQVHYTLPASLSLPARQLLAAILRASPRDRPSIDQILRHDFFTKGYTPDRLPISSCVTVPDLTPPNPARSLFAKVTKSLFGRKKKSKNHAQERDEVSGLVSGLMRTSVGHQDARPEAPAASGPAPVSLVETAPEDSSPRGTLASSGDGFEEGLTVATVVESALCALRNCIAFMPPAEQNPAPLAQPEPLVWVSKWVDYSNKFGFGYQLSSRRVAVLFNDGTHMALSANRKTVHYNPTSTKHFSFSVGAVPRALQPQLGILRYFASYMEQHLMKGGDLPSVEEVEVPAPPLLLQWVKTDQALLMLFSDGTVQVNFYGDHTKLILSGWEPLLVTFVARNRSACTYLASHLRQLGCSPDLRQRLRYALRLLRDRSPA

Compound: FITC-Ahx-DPPLHSpTAI-NH2 ({FITC-Ahx}-DPPLHS[pT]AI-NH2; SMILES CC[C@H](C)[C@H](NC(=O)[C@H](C)NC(=O)[C@@H](NC(=O)[C@H](CO)NC(=O)[C@H](Cc1c[nH]cn1)NC(=O)[C@H](CC(C)C)NC(=O)[C@@H]1CCCN1C(=O)[C@@H]1CCCN1C(=O)[C@H](CC(=O)O)NC(=O)CCCCCNC(=S)Nc1ccc2c(c1)C(=O)OC21c2ccc(O)cc2Oc2cc(O)ccc21)[C@@H](C)OP(=O)(O)O)C(N)=O) [FITC-conjugated phosphopeptide, FP probe, reference compound]
- Decrease in affinity of the FITC-phosphopeptide compared to WT (PBD1 F559D mutant): 1.7 fold
- Decrease in affinity of the FITC-phosphopeptide compared to WT (PBD1 F559E mutant): approximately sevenfold decreased affinity
- Decrease in affinity of the FITC-phosphopeptide compared to WT (PBD1 F559K mutant): more than 27 fold
- Decrease in affinity of the FITC-phosphopeptide compared to WT (PBD1 F559R mutant): > 42 fold

Compound: Polotyrin
- GI50 (cultured cells): a few hundred

The next lines start with results.

- IC50 (full-length Plk1): 1660 ± 40 nM
- IC50 (Plk1 PBD (PBD1)): 12.8 ± 2.6 nM
- PBD2 IC50 ± SD (Plk2 PBD (PBD2)): N. S.
- PBD3 IC50 ± SD (Plk3 PBD (PBD3)): N. S.
- Ki (BZP Rat brain site): 410 nM
Compound: Cc1cc2c(s1)c(=O)n(CC1CC1)c1n[nH]c(=S)n21 [compound 5]
- Cell efficacy (GI50) Mean ± SD (L363 cells): N. S.

- IC50 (full-length Plk1): > 50000 nM
- Conversion of prodrug to active species by GSH (in words) [1]: complete conversion
- Solubility (in words) [2]: low solubility
- Interactions (Ki, µM), summary of PDSP screen (in words) [3]: None observed
Compound: Cc1cc2c(s1)c(=O)n(CC1CC1)c1nnc(Sc3c([N+](=O)[O-])ncn3C)n21 [compound 6]
- GI50 (L363 cells; read-out: Cell efficacy (GI50) Mean ± SD): 3130 ± 150 nM

- IC50 (full-length Plk1): 9320 ± 170 nM
- Pulldown of Plk3 from mixed total lysates (in words) (Flag-Plk3 K52R): not Plk2 or Plk3
Compound: O=C(CCCCC1SCC2NC(=O)NC21)NCCOCCOCCOCCOCCC(=O)NCCCn1c(=O)c2cc(F)ccc2n2c(=S)[nH]nc12 (centres unmarked) [compound 22]
- Pulldown of Plk1 from mixed total lysates (in words) (Flag-Plk1 K82M): precipitated the full-length Plk1; also recorded: specifically interacts with
- Pulldown of Plk2 from mixed total lysates (in words) (Flag-Plk2 K108M): not Plk2 or Plk3
